Data as given in the supplement of paper PMC11414989.

Columns and labels:
Details in all cases: exposure window: 6 hpf to 120 hpf, static, assay age: 120 hpf (5 dpf)
[1] = test system: Danio rerio larvae (Tropical 5D); test: mean distance moved of exposed larvae, dark phase (µm per frame (1/25 s)); higher = more movement
Experimental: (§1)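 Larval photomotor response in Tropical 5D wild-type zebrafish. Larvae were statically exposed to each chemical from 6 hpf to 5 dpf in 96-well plates; morphologically abnormal larvae were excluded. At 120 hpf, larvae were tracked with Ethovision XT (25 frames/s) over the 2nd cycle of 3 min light and 3 min dark. Values are the mean movement metric of exposed larvae per phase; same-plate control means (plate-dependent baseline) are given as conditions.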

[2] = test system: Danio rerio larvae (Tropical 5D); test: mean distance moved of exposed larvae, light phase (µm per frame (1/25 s)); higher = more movement
Experimental: as §1

[3] = test system: Danio rerio larvae (Tropical 5D); test: mean angular velocity of exposed larvae, dark phase (angular velocity (unit not stated)); higher = more movement
Experimental: as §1

[4] = test system: Danio rerio larvae (Tropical 5D); test: mean angular velocity of exposed larvae, light phase (angular velocity (unit not stated)); higher = more movement
Experimental: as §1

CCN(CCOP(=O)(O)O)S(=O)(=O)C(F)(F)C(F)(F)C(F)(F)C(F)(F)C(F)(F)C(F)(F)C(F)(F)C(F)(F)F
mean distance moved of exposed larvae ([1]; 0.25 µM): 23.4
mean distance moved of exposed larvae ([2]; 0.25 µM): 3.01
mean angular velocity of exposed larvae ([3]; 0.25 µM): 0.809
mean angular velocity of exposed larvae ([4]; 0.25 µM): 0.169

Cc1cccc2c1ccc1ccccc12 [1-Methylphenanthrene]
mean distance moved of exposed larvae ([1]; 1 µM): 14.6
mean distance moved of exposed larvae ([1]; 2.54 µM): 16.3
mean distance moved of exposed larvae ([1]; 6.45 µM): 19.4
mean distance moved of exposed larvae ([1]; 16.4 µM): 17.5
mean distance moved of exposed larvae ([1]; 35 µM): 21.2
mean distance moved of exposed larvae ([1]; 74.8 µM): 12.8
mean distance moved of exposed larvae ([1]; 100 µM): 10.4
mean distance moved of exposed larvae ([2]; 1 µM): 5.24
mean distance moved of exposed larvae ([2]; 2.54 µM): 4.47
mean distance moved of exposed larvae ([2]; 6.45 µM): 4.85
mean distance moved of exposed larvae ([2]; 16.4 µM): 5.17
mean distance moved of exposed larvae ([2]; 35 µM): 4.57
mean distance moved of exposed larvae ([2]; 74.8 µM): 4.58
mean distance moved of exposed larvae ([2]; 100 µM): 5.53
mean angular velocity of exposed larvae ([3]; 1 µM): 0.432
mean angular velocity of exposed larvae ([3]; 2.54 µM): 0.487
mean angular velocity of exposed larvae ([3]; 6.45 µM): 0.604
mean angular velocity of exposed larvae ([3]; 16.4 µM): 0.563
mean angular velocity of exposed larvae ([3]; 35 µM): 0.642
mean angular velocity of exposed larvae ([3]; 74.8 µM): 0.39
mean angular velocity of exposed larvae ([3]; 100 µM): 0.294
mean angular velocity of exposed larvae ([4]; 1 µM): 0.118
mean angular velocity of exposed larvae ([4]; 2.54 µM): 0.119
mean angular velocity of exposed larvae ([4]; 6.45 µM): 0.139
mean angular velocity of exposed larvae ([4]; 16.4 µM): 0.133
mean angular velocity of exposed larvae ([4]; 35 µM): 0.126
mean angular velocity of exposed larvae ([4]; 74.8 µM): 0.12
mean angular velocity of exposed larvae ([4]; 100 µM): 0.143

NC(O)(C(F)(F)F)C(F)(F)F [2-Aminohexafluoropropan-2-ol]
mean distance moved of exposed larvae ([1]; 0.015 µM): 17.5
mean distance moved of exposed larvae ([1]; 0.046 µM): 11.4
mean distance moved of exposed larvae ([1]; 0.14 µM): 13
mean distance moved of exposed larvae ([1]; 0.41 µM): 13
mean distance moved of exposed larvae ([1]; 1.23 µM): 6.93
mean distance moved of exposed larvae ([1]; 3.7 µM): 18.8
mean distance moved of exposed larvae ([1]; 11.1 µM): 11.2
mean distance moved of exposed larvae ([1]; 33.3 µM): 18.3
mean distance moved of exposed larvae ([1]; 66.5 µM): 14.6
mean distance moved of exposed larvae ([1]; 100 µM): 27.2
mean distance moved of exposed larvae ([2]; 0.015 µM): 1.1
mean distance moved of exposed larvae ([2]; 0.046 µM): 0.932
mean distance moved of exposed larvae ([2]; 0.14 µM): 0.925
mean distance moved of exposed larvae ([2]; 0.41 µM): 0.917
mean distance moved of exposed larvae ([2]; 1.23 µM): 0.251
mean distance moved of exposed larvae ([2]; 3.7 µM): 1.12
mean distance moved of exposed larvae ([2]; 11.1 µM): 0.717
mean distance moved of exposed larvae ([2]; 33.3 µM): 1.18
mean distance moved of exposed larvae ([2]; 66.5 µM): 0.668
mean distance moved of exposed larvae ([2]; 100 µM): 0.989
mean angular velocity of exposed larvae ([3]; 0.015 µM): 0.62
mean angular velocity of exposed larvae ([3]; 0.046 µM): 0.444
mean angular velocity of exposed larvae ([3]; 0.14 µM): 0.508
mean angular velocity of exposed larvae ([3]; 0.41 µM): 0.552
mean angular velocity of exposed larvae ([3]; 1.23 µM): 0.344
mean angular velocity of exposed larvae ([3]; 3.7 µM): 0.702
mean angular velocity of exposed larvae ([3]; 11.1 µM): 0.423
mean angular velocity of exposed larvae ([3]; 33.3 µM): 0.702
mean angular velocity of exposed larvae ([3]; 66.5 µM): 0.491
mean angular velocity of exposed larvae ([3]; 100 µM): 0.969
mean angular velocity of exposed larvae ([4]; 0.015 µM): 0.0444
mean angular velocity of exposed larvae ([4]; 0.046 µM): 0.0195
mean angular velocity of exposed larvae ([4]; 0.14 µM): 0.0424
mean angular velocity of exposed larvae ([4]; 0.41 µM): 0.0293
mean angular velocity of exposed larvae ([4]; 1.23 µM): 0.00969
mean angular velocity of exposed larvae ([4]; 3.7 µM): 0.0543
mean angular velocity of exposed larvae ([4]; 11.1 µM): 0.0181
mean angular velocity of exposed larvae ([4]; 33.3 µM): 0.0369
mean angular velocity of exposed larvae ([4]; 66.5 µM): 0.0243
mean angular velocity of exposed larvae ([4]; 100 µM): 0.0458

Cc1ccc2c(ccc3ccccc32)c1 [2-Methylphenanthrene]
mean distance moved of exposed larvae ([1]; 1 µM): 16.4
mean distance moved of exposed larvae ([1]; 2.54 µM): 12.1
mean distance moved of exposed larvae ([1]; 6.45 µM): 15
mean distance moved of exposed larvae ([1]; 16.4 µM): 15.5
mean distance moved of exposed larvae ([1]; 35 µM): 16.9
mean distance moved of exposed larvae ([1]; 74.8 µM): 13.3
mean distance moved of exposed larvae ([1]; 100 µM): 13.2
mean distance moved of exposed larvae ([2]; 1 µM): 2.38
mean distance moved of exposed larvae ([2]; 2.54 µM): 1.4
mean distance moved of exposed larvae ([2]; 6.45 µM): 1.73
mean distance moved of exposed larvae ([2]; 16.4 µM): 2.82
mean distance moved of exposed larvae ([2]; 35 µM): 1.74
mean distance moved of exposed larvae ([2]; 74.8 µM): 2.4
mean distance moved of exposed larvae ([2]; 100 µM): 1.83
mean angular velocity of exposed larvae ([3]; 1 µM): 0.536
mean angular velocity of exposed larvae ([3]; 2.54 µM): 0.424
mean angular velocity of exposed larvae ([3]; 6.45 µM): 0.539
mean angular velocity of exposed larvae ([3]; 16.4 µM): 0.592
mean angular velocity of exposed larvae ([3]; 35 µM): 0.507
mean angular velocity of exposed larvae ([3]; 74.8 µM): 0.473
mean angular velocity of exposed larvae ([3]; 100 µM): 0.439
mean angular velocity of exposed larvae ([4]; 1 µM): 0.0841
mean angular velocity of exposed larvae ([4]; 2.54 µM): 0.0709
mean angular velocity of exposed larvae ([4]; 6.45 µM): 0.0511
mean angular velocity of exposed larvae ([4]; 16.4 µM): 0.126
mean angular velocity of exposed larvae ([4]; 35 µM): 0.0754
mean angular velocity of exposed larvae ([4]; 74.8 µM): 0.0848
mean angular velocity of exposed larvae ([4]; 100 µM): 0.0583

O=C(O)CCC(F)(F)C(F)(F)C(F)(F)C(F)(F)C(F)(F)C(F)(F)C(F)(F)F [3-Perfluoroheptyl propanoic acid]
mean distance moved of exposed larvae ([1]; 0.25 µM): 12.1
mean distance moved of exposed larvae ([2]; 0.25 µM): 1.75
mean angular velocity of exposed larvae ([3]; 0.25 µM): 0.534
mean angular velocity of exposed larvae ([4]; 0.25 µM): 0.0662

O=C(O)CCC(F)(F)C(F)(F)C(F)(F)C(F)(F)C(F)(F)F [3-Perfluoropentyl propanoic acid]
mean distance moved of exposed larvae ([1]; 0.25 µM): 14.9
mean distance moved of exposed larvae ([2]; 0.25 µM): 1.49
mean angular velocity of exposed larvae ([3]; 0.25 µM): 0.61
mean angular velocity of exposed larvae ([4]; 0.25 µM): 0.0445

O=P(O)(O)C(F)(F)C(F)(F)C(F)(F)C(F)(F)C(F)(F)C(F)(F)Cl [6-Chloroperfluorohexylphosphonic acid]
mean distance moved of exposed larvae ([1]; 0.167 µM): 20.6
mean distance moved of exposed larvae ([2]; 0.167 µM): 6.62
mean angular velocity of exposed larvae ([3]; 0.167 µM): 0.789
mean angular velocity of exposed larvae ([4]; 0.167 µM): 0.212

O=P(O)(O)C(F)(F)C(F)(F)C(F)(F)C(F)(F)C(F)(F)C(F)(F)C(F)(F)C(F)(F)Cl [8-Chloroperfluorooctylphosphonic acid]
mean distance moved of exposed larvae ([1]; 0.167 µM): 24.4
mean distance moved of exposed larvae ([2]; 0.167 µM): 7.53
mean angular velocity of exposed larvae ([3]; 0.167 µM): 0.9
mean angular velocity of exposed larvae ([4]; 0.167 µM): 0.234

C[Si](C)(C)C(F)(F)C(F)(F)C(F)(F)F [(Heptafluoropropyl)trimethylsilane]
mean distance moved of exposed larvae ([1]; 0.015 µM): 13.3
mean distance moved of exposed larvae ([1]; 0.046 µM): 19.7
mean distance moved of exposed larvae ([1]; 0.14 µM): 19.1
mean distance moved of exposed larvae ([1]; 0.41 µM): 16.9
mean distance moved of exposed larvae ([1]; 1.23 µM): 22.6
mean distance moved of exposed larvae ([1]; 3.7 µM): 12.9
mean distance moved of exposed larvae ([1]; 11.1 µM): 18.6
mean distance moved of exposed larvae ([1]; 33.3 µM): 15.3
mean distance moved of exposed larvae ([1]; 66.5 µM): 25.7
mean distance moved of exposed larvae ([1]; 100 µM): 24.3
mean distance moved of exposed larvae ([2]; 0.015 µM): 1.23
mean distance moved of exposed larvae ([2]; 0.046 µM): 1.25
mean distance moved of exposed larvae ([2]; 0.14 µM): 1.98
mean distance moved of exposed larvae ([2]; 0.41 µM): 1.51
mean distance moved of exposed larvae ([2]; 1.23 µM): 1.46
mean distance moved of exposed larvae ([2]; 3.7 µM): 0.916
mean distance moved of exposed larvae ([2]; 11.1 µM): 2.09
mean distance moved of exposed larvae ([2]; 33.3 µM): 1.5
mean distance moved of exposed larvae ([2]; 66.5 µM): 1.57
mean distance moved of exposed larvae ([2]; 100 µM): 2.09
mean angular velocity of exposed larvae ([3]; 0.015 µM): 0.571
mean angular velocity of exposed larvae ([3]; 0.046 µM): 0.779
mean angular velocity of exposed larvae ([3]; 0.14 µM): 0.81
mean angular velocity of exposed larvae ([3]; 0.41 µM): 0.637
mean angular velocity of exposed larvae ([3]; 1.23 µM): 0.884
mean angular velocity of exposed larvae ([3]; 3.7 µM): 0.521
mean angular velocity of exposed larvae ([3]; 11.1 µM): 0.685
mean angular velocity of exposed larvae ([3]; 33.3 µM): 0.594
mean angular velocity of exposed larvae ([3]; 66.5 µM): 0.949
mean angular velocity of exposed larvae ([3]; 100 µM): 1.01
mean angular velocity of exposed larvae ([4]; 0.015 µM): 0.0325
mean angular velocity of exposed larvae ([4]; 0.046 µM): 0.0534
mean angular velocity of exposed larvae ([4]; 0.14 µM): 0.0675
mean angular velocity of exposed larvae ([4]; 0.41 µM): 0.0607
mean angular velocity of exposed larvae ([4]; 1.23 µM): 0.048
mean angular velocity of exposed larvae ([4]; 3.7 µM): 0.0422
mean angular velocity of exposed larvae ([4]; 11.1 µM): 0.0925
mean angular velocity of exposed larvae ([4]; 33.3 µM): 0.0521
mean angular velocity of exposed larvae ([4]; 66.5 µM): 0.0503
mean angular velocity of exposed larvae ([4]; 100 µM): 0.0731
